Measured values from patent US20260272854A1, “PHARMACEUTICAL AGENT, MEDICINAL SOLUTION FOR CLEANING PULMONARY ALVEOLI, AND NEBULIZER” (priority 2019, published 2026).

How the values were obtained:
[1] = Surface tension of a hanging droplet, Young-Laplace method (curve fitting); type: physicochemical; details: for surface tension reduction effect, polyamine alone: without surfactant; for surface tension in 0.3 mg/ml bovine lung surfactant: 1 mM of polyamine, 10 seconds after production of hanging droplet; for surface tension, polyamine alone: 0-10000 msec
Experimental: Surface tension was measured by the Young-Laplace method (curve fitting) using a contact angle meter (B100, manufactured by Asumi Giken, Limited), on a droplet formed at the tip of a 20-gauge straight needle.
Tensiometer: contact angle meter (B100, manufactured by Asumi Giken, Limited)
Surface tension measurement method: Young-Laplace method (curve fitting)
Hanging droplet production method: a maximum size of droplet not to drop was produced at the tip of a 20-gauge straight needle (an autodispenser was used)
Imaging of hanging droplet: imaging was performed using a CCD camera
Bovine lung surfactant: a commercially available bovine lung extract artificial surfactant (Surfacten (trade name), manufactured by Mitsubishi Tanabe Pharma Corporation) was adjusted to a concentration of 30 mg/ml using physiological saline according to the package insert. […] In the drawings, the formulated surfactant solution is indicated by “30 mg/ml surf.”
10-fold diluted bovine lung surfactant: a commercially available bovine lung extract artificial surfactant (Surfacten (trade name), manufactured by Mitsubishi Tanabe Pharma Corporation) was adjusted to a concentration of 3 mg/ml using physiological saline. In the drawings, the formulated surfactant solution is indicated by “3 mg/ml surf.”
100-fold diluted bovine lung surfactant: a commercially available bovine lung extract artificial surfactant (Surfacten (trade name), manufactured by Mitsubishi Tanabe Pharma Corporation) was adjusted to a concentration of 0.3 mg/ml using physiological saline. Pulmonary surfactant was diluted with physiological saline, i.e., the resultant solution mimics the state of surfactant in a lung affected by ARDS. In the drawings, the formulated surfactant solution is indicated by “100-fold diluted bovine lung surfactant,” “0.3-mg/ml bovine lung surfactant,” “0.3 mg/ml surf,” or “ 1/100 Surf.”
1000-fold diluted bovine lung surfactant: a commercially available bovine lung extract artificial surfactant (Surfacten (trade name), manufactured by Mitsubishi Tanabe Pharma Corporation) was adjusted to a concentration of 0.03 mg/ml using physiological saline. In the drawings, the formulated surfactant solution is indicated by “0.03 mg/ml surf.”
Polyamine-containing 100-fold diluted bovine lung surfactant:
The solution was formulated using a commercially available polyamine chloride. […]

[2] = test system: lung affected by ARDS; details: transairway administration of 5 mM of Spm, 20 ml/kg, 5 times, after first washing with physiological saline
Experimental: Specifically, influence of transairway administration of 5 mM of Spm to an ARDS model animal on lung compliance was analyzed.
A tracheal cannula was inserted into a rat under general anesthesia, and then euthanized. Immediately after that, artificial ventilation was conducted for 30 seconds, and lung compliance before washing that is calculated based on intra-airway pressure was set as 1.0 (“before washing” on the left slide of FIG. 10). Following this, a lung affected by ARDS was produced. Specifically, an injection/suction operation was conducted 5 times consecutively within 2 minutes using 20 ml/kg of physiological saline through the tracheal cannula. After the washing solution remaining in the tracheal cannula was suctioned out, artificial ventilation was conducted for 30 seconds, and the lung compliance of the lung affected by ARDS was calculated and compared with that of the normal lung (“first pulmonary alveolar washing” at the center of FIG. 10). […] After the washing solution remaining in the tracheal cannula was suctioned out, artificial ventilation was conducted for 30 seconds, and the lung compliance calculated based on intra-airway pressure (“second pulmonary alveolar washing” (open column) on the right side of FIG. 10) was compared with that of the lung affected by ARDS. […]

[3] = test system: ARDS model; test: Gas exchange dysfunction occurrence rate (P/F ratio<300) after pulmonary alveolar washing; type: in vivo, rat
Experimental: Ventilation was conducted by inverse ratio ventilation without using PEEP. The ventilation was conducted using ambient air (inhaled oxygen concentration FiO2: 0.21) without oxygen administration. The intra-airway pressure and the partial pressure of oxygen in the arterial blood (PaO2) were measured over time. Influence of the polyamine was analyzed, where dynamic lung compliance was used as a measure of the distensibility of the lung, and the P/F ratio<300 was used as a criterion for gas exchange dysfunction. […] Influence of Spm administered to pulmonary alveoli on the rate of occurrence of gas exchange dysfunction was analyzed, where the P/F ratio<300 was used as a criterion for gas exchange dysfunction. […] Cases (death) that death occurred before the measurement times, i.e., arterial blood sampling was not conducted, were counted as the case of occurrence of gas exchange dysfunction.

[4] = test system: lung field; details: rat d: washed with physiological saline, then physiological saline containing 5 mM of Spm; applied pressure 20 cm H2O
Experimental: Plain X-ray imaging and X-ray CT imaging were performed, with an air pressure (0 and 20 cm H2O) exerted through a tracheal cannula, on rats that were euthanized after pulmonary alveolar washing or rats that were subjected to pulmonary alveolar washing immediately after euthanization.
A rat a was a control that was not subjected to pulmonary alveolar washing. Specifically, a tracheal cannula was inserted into a rat under general anesthesia, and the rat was euthanized without pulmonary alveolar washing.
A rat b was subjected to pulmonary alveolar washing with physiological saline containing 1 mM of Spm. Specifically, a tracheal cannula was inserted into a rat under general anesthesia, and after the rat was euthanized, 20 ml/kg of a pulmonary alveolar washing solution (physiological saline containing 1 mM of Spm) was injected/suctioned consecutively 5 times within 2 minutes through the tracheal cannula, and the washing solution remaining in the trachea was suctioned out.
A rat c was subjected to pulmonary alveolar washing with physiological saline. Specifically, a tracheal cannula was inserted into a rat under general anesthesia. […]

[5] = test system: ARDS model; test: Dynamic lung compliance after pulmonary alveolar washing, ventilated ARDS model rat; type: in vivo; details: for lung compliance after pulmonary alveolar washing: 20 ml/kg, 5 times within 2 minutes; for time it took to recover to 0.9 (lung compliance before washing set as 1.0): average
Experimental: When the respiratory and circulatory dynamics of the rat were stable under artificial ventilation, an injection/suction operation using 20 ml/kg of a pulmonary alveolar washing solution (physiological saline) through the tracheal cannula was conducted […] consecutively within 2 minutes. […] Thus, an ARDS model whose pulmonary alveoli were washed with physiological saline was produced. The pulmonary alveolar washing operation means production of a respiratory distress syndrome (ARDS) model having decreased lung compliance.
(§1) The above ventilation was conducted by inverse ratio ventilation without using PEEP. The ventilation was conducted using ambient air (inhaled oxygen concentration FiO2: 0.21) without oxygen administration. The intra-airway pressure and the partial pressure of oxygen in the arterial blood (PaO2) were measured over time. Influence of the polyamines was analyzed, where dynamic lung compliance (=a tidal volume/a change in intra-airway pressure) (expression 1) was used as a measure of the distensibility of the lung, and PaO2/FiO2 (P/F ratio)<300 was used as a criterion for gas exchange dysfunction.
(§2) When the respiratory and circulatory dynamics of the rat were stable under artificial ventilation, 20 ml/kg of a pulmonary alveolar washing solution (physiological saline) was injected/suctioned consecutively 5 times within 2 minutes through the tracheal cannula. […] Thus, an ARDS model whose pulmonary alveoli were washed with physiological saline was produced.
as §2, with “(physiological saline containing 0.5 mM of Spm)” for “(physiological saline)”, “with 0.5 mM of Spm” for “with physiological saline”
as §1, with “polyamine” for “polyamines”, “compliance” for “compliance (=a tidal volume/a change in intra-airway pressure) (expression 1)”, “the P/F ratio<300” for “PaO2/FiO2 (P/F ratio)<300”
as §2, with “(physiological saline containing 1 mM of Spm)” for “(physiological saline)”, “with 1 mM of Spm” for “with physiological saline”
When the respiratory and circulatory dynamics of the rat were stable under artificial ventilation, 20 ml/kg of a pulmonary alveolar washing solution (0.3 mg/ml of a bovine lung extract artificial surfactant; the bovine lung extract artificial surfactant was formulated by dissolving Surfacten (trade name), manufactured by Mitsubishi Tanabe Pharma Corporation, in physiological saline to a concentration of 0.3 mg/ml, which is 1/100 of the concentration that is normally for administration to a preterm infant) was injected/suctioned consecutively 5 times within 2 minutes through the tracheal cannula. […] Note that it was confirmed that no polyamines are detected in the bovine lung extract artificial surfactant. […]

NCCCCN [Put, putrescine]
surface tension reduction effect in diluted surfactant environment ([1]; Put-containing 0.3 mg/ml bovine lung surfactant, 60 seconds after formation of hanging droplet): observed on several tens of seconds after formation of a hanging droplet
surface tension reduction effect, polyamine alone [1]: does not have the surface tension reduction effect

CC(=O)NCCCNCCCCN [N1-AcSpd, N1-acetylspermidine]
surface tension in 0.3 mg/ml bovine lung surfactant [1]: reduction in surface tension
surface tension, polyamine alone ([1]; 1 mM without surfactant): 63 mN/m
surface tension reduction effect, polyamine alone [1]: does not have the surface tension reduction effect

NCCCCNCCCN [Spd, spermidine]
surface tension reduction effect in diluted surfactant environment ([1]; Spd-containing 0.3 mg/ml bovine lung surfactant): has the surface tension reduction effect
surface tension reduction effect, polyamine alone [1]: does not have the surface tension reduction effect

NCCCCCCN [diaminohexane]
surface tension in 0.3 mg/ml bovine lung surfactant [1]: reduction in surface tension
surface tension, polyamine alone ([1]; 1 mM without surfactant): 62 mN/m
surface tension reduction effect, polyamine alone [1]: does not have the surface tension reduction effect

NCCCNCCCCNCCCN [Spm, spermine]
lung compliance after second pulmonary alveolar washing [2]: improved the lung compliance
gas exchange dysfunction occurrence rate ([3]; 20 minutes after washing, 1 mM of Spm): lower than the others
gas exchange dysfunction occurrence rate ([3]; 1 hour after washing, Spm-containing physiological saline (0.5 and 1 mM) compared to physiological saline): significantly decreased
CT images of lung field [4]: no wide range of infiltrative shadow was observed
X-ray images of lung field [4]: the cardiac shadow became clear
surface tension, polyamine alone ([1]; 0.5 mM of Spm without surfactant): 64 mN/m
surface tension of 0.3 mg/ml surf ([1]; presence of 0.5, 1 and 2 mM of Spm): reduced surface tension
surface tension reduction effect, polyamine alone [1]: does not have such a surface tension reduction effect
lung compliance after pulmonary alveolar washing ([5]; physiological saline containing 0.5 mM of Spm): lung compliance subsequently recovered
lung compliance after pulmonary alveolar washing ([5]; physiological saline containing 1 mM of Spm): lung compliance subsequently recovered
effect of improving lung compliance, 1 mM versus 0.5 mM of Spm ([5]; until 60 minutes after washing): higher for 1 mM of Spm
time it took to recover to 0.9 (lung compliance before washing set as 1.0) ([5]; washing with 0.5 mM of Spm): 60 min
time it took to recover to 0.9 (lung compliance before washing set as 1.0) ([5]; washing with 1 mM of Spm): 15 min
